Assay results reported in ChEMBL document CHEMBL4699447, “Initial Analysis of the Arylomycin D Antibiotics” (2020).

Experiments:
Format in all cases: functional
Yersinia pestis = assay: Antimicrobial activity against Yersinia pestis KIM6+ assessed as reduction in microbial growth after 24 hrs by CLSI based broth microdilution method
[1] = test system: Staphylococcus epidermidis; assay: Antimicrobial activity against Staphylococcus epidermidis RP62A assessed as reduction in microbial growth after 24 hrs by CLSI based broth microdilution method
Escherichia coli [2] = assay: Antimicrobial activity against Escherichia coli K-12 assessed as reduction in microbial growth after 24 hrs by CLSI based broth microdilution method
Escherichia coli [3] = assay: Antimicrobial activity against Escherichia coli IMP BAS901 assessed as reduction in microbial growth after 24 hrs by CLSI based broth microdilution method
Staphylococcus aureus = assay: Antimicrobial activity against methicillin-resistant Staphylococcus aureus USA300 assessed as reduction in microbial growth after 24 hrs by CLSI based broth microdilution method

CCCCCCCCCCCCCCCC(=O)NCCC(=O)N[C@@H](CS(=O)(=O)O)C(=O)N(C)[C@@H]1C(=O)N[C@@H](C)C(=O)N[C@H](C(=O)O)Cc2ccc(O)c(c2)-c2cc1ccc2O
MIC (Yersinia pestis): 2 µg/mL | MIC [1]: 4 µg/mL | MIC (Escherichia coli [2]): > 64 µg/mL | MIC (Escherichia coli [3]): > 64 µg/mL | MIC (Staphylococcus aureus): 16 µg/mL

CCCCCCCCCCCCCCCC(=O)NCCC(=O)N[C@H](CS(=O)(=O)O)C(=O)N(C)[C@@H]1C(=O)N[C@@H](C)C(=O)N[C@H](C(=O)O)Cc2ccc(OS(=O)(=O)O)c(c2)-c2cc1cc(OS(=O)(=O)O)c2O[C@@H]1O[C@@H](C)[C@H](O)[C@@H](O)[C@H]1O
MIC (Yersinia pestis): > 64 µg/mL | MIC [1]: > 64 µg/mL | MIC (Escherichia coli [3]): > 64 µg/mL | MIC (Staphylococcus aureus): > 64 µg/mL

CCCCCCCCCCCCCCCC(=O)N(C)[C@H](CO)C(=O)N[C@H](C)C(=O)NCC(=O)N(C)[C@@H]1C(=O)N[C@@H](C)C(=O)N[C@H](C(=O)O)Cc2ccc(O)c(c2)-c2cc1ccc2O [ARYLOMYCIN C16]
MIC [1]: 0.25 µg/mL | MIC (Escherichia coli [2]): > 64 µg/mL | MIC (Escherichia coli [3]): 16 µg/mL | MIC (Staphylococcus aureus): > 64 µg/mL

CCCCCCCCCCCCCCCC(=O)NCCC(=O)N[C@@H](CS(=O)(=O)O)C(=O)N(C)[C@@H]1C(=O)N[C@@H](C)C(=O)N[C@H](C(=O)O)Cc2ccc(O)c(c2)-c2cc1cc(O)c2O[C@@H]1O[C@@H](C)[C@H](O)[C@@H](O)[C@H]1O
MIC (Yersinia pestis): 4 µg/mL | MIC [1]: 8 µg/mL | MIC (Escherichia coli [2]): > 64 µg/mL | MIC (Escherichia coli [3]): 64 µg/mL | MIC (Staphylococcus aureus): 32 µg/mL

CCCCCCCCCCCCCCCC(=O)N(C)[C@H](CO)C(=O)N[C@H](C)C(=O)NCC(=O)N(C)[C@@H]1C(=O)N[C@@H](C)C(=O)N[C@H](C(=O)O)Cc2ccc(OS(=O)(=O)O)c(c2)-c2cc1cc(OS(=O)(=O)O)c2O[C@@H]1O[C@@H](C)[C@H](O)[C@@H](O)[C@H]1O
MIC (Yersinia pestis): > 64 µg/mL | MIC [1]: > 64 µg/mL | MIC (Escherichia coli [3]): > 64 µg/mL | MIC (Staphylococcus aureus): > 64 µg/mL

CCCCCCCCCCCCCCCC(=O)NCCC(=O)N[C@@H](CS(=O)(=O)O)C(=O)N(C)[C@@H]1C(=O)N[C@@H](C)C(=O)N[C@H](C(=O)O)Cc2ccc(OS(=O)(=O)O)c(c2)-c2cc1cc(OS(=O)(=O)O)c2O[C@@H]1O[C@@H](C)[C@H](O)[C@@H](O)[C@H]1O
MIC (Yersinia pestis): > 64 µg/mL | MIC [1]: > 64 µg/mL | MIC (Escherichia coli [3]): > 64 µg/mL | MIC (Staphylococcus aureus): > 64 µg/mL
